# Assay results as given in US20220289679A1, “HETEROCYCLIC COMPOUND” (Takeda Pharmaceutical Company Limited, priority 2019, published 2022).
# Target: T1, human GCS (glucosylceramide synthase) (Homo sapiens, UniProt Q16739)
# T1 construct: made in house; host or cells: Expi293F cells (transient expression; microsome fraction)
# T1 sequence (Q16739 1-394): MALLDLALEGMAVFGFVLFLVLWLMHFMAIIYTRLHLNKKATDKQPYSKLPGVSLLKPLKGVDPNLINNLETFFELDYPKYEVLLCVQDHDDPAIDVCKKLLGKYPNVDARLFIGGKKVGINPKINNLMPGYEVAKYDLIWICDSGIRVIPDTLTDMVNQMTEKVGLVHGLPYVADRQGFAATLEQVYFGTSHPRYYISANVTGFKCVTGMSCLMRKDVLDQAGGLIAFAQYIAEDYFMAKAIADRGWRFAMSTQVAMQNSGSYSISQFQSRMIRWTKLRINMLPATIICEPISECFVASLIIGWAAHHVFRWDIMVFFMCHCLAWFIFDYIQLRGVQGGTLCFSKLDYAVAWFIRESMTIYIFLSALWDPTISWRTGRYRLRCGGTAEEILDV
# Test: Glucosylceramide Synthase (GCS) Assay
# Assay type: biochemical
# Conditions: test compound 10 μM; microsome fraction of Expi293F cells expressing human GCS; 1.7 μM UDP-glucose, 3 μM C8 ceramide; room temperature 60 min; C8 glucosylceramide by Rapidfire MS/MS; read-out: GCS enzyme inhibitory rate at 10 μM (%)
# Procedure, shortened: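 Enzyme source was a microsome fraction from Expi293F cells transiently expressing human GCS. Reaction ran 60 min at room temperature in 20 mM Tris pH 7.5 with 1.7 μM UDP-glucose (Km) and 3 μM liposomal C8 ceramide, compound at 10 μM final. C8 glucosylceramide quantified by RapidFire MS/MS; inhibition scaled between enzyme-free and DMSO controls.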
row,SMILES,inhibition at 10 µM [%]
1,"Cc1cc(C(C)(C)O)ccc1NC(=O)c1ccnn(-c2ccccc2OCC(F)F)c1=O [Example 143, 2-[2-(2,2-difluoroethoxy)phenyl]-N-[4-(2-hydroxypropan-2-yl)-2-methylphenyl]-3-oxo-2,3-dihydropyridazine-4-carboxamide]",97
2,"O=C(Nc1ccc(F)cc1F)c1cn(CC2COC2)nc(-c2ccccc2OCC(F)F)c1=O [Example 181, 6-[2-(2,2-difluoroethoxy)phenyl]-N-(2,4-difluorophenyl)-2-[(oxetan-3-yl)methyl]-5-oxo-2,5-dihydropyridazine-4-carboxamide]",97
3,"CC(C)(O)c1cc(C(=O)Nc2ccc(OC(F)F)cc2)c(=O)n(-c2ccccc2OCC(F)(F)F)n1 [Example 200, N-[4-(difluoromethoxy)phenyl]-6-(2-hydroxypropan-2-yl)-3-oxo-2-[2-(2,2,2-trifluoroethoxy)phenyl]-2,3-dihydropyridazine-4-carboxamide]",99
4,"Cc1cc(C(=O)Nc2ccc(C(O)(C(F)F)C(F)F)nc2)c(=O)n(-c2ccccc2OCC(F)F)n1 [Example 109, 2-[2-(2,2-difluoroethoxy)phenyl]-6-methyl-3-oxo-N-[6-(1,1,3,3-tetrafluoro-2-hydroxypropan-2-yl)pyridin-3-yl]-2,3-dihydropyridazine-4-carboxamide]",100
5,"O=C(Nc1ccc(C(O)(C(F)F)C(F)F)cc1F)c1ccnn(-c2ccccc2OCC(F)F)c1=O [Example 157, 2-[2-(2,2-difluoroethoxy)phenyl]-N-[2-fluoro-4-(1,1,3,3-tetrafluoro-2-hydroxypropan-2-yl)phenyl]-3-oxo-2,3-dihydropyridazine-4-carboxamide]",100
6,"Cc1cc(C(=O)Nc2ccc(C3COC3)cc2)c(=O)n(-c2ccccc2OCC(F)F)n1 [Example 141, 2-[2-(2,2-difluoroethoxy)phenyl]-6-methyl-N-[4-(oxetan-3-yl)phenyl]-3-oxo-2,3-dihydropyridazine-4-carboxamide]",99

# Other lines, results leading:
row,inhibition at 10 µM [%],SMILES
1,68,"COc1cc(F)ccc1-n1cccc(C(=O)Nc2ccc(OCC(F)(F)F)nc2)c1=O [Example 5, 1-(4-fluoro-2-methoxyphenyl)-2-oxo-N-[6-(2,2,2-trifluoroethoxy)pyridin-3-yl]-1,2-dihydropyridine-3-carboxamide]"
2,97,"CC(C)(O)COc1ccc(NC(=O)c2cccn(-c3ccccc3OCC(F)(F)F)c2=O)cc1 [Example 70, N-[4-(2-hydroxy-2-methylpropoxy)phenyl]-2-oxo-1-[2-(2,2,2-trifluoroethoxy)phenyl]-1,2-dihydropyridine-3-carboxamide]"
3,81,"O=C(Nc1ccc(OCC(F)(F)F)nc1)c1cccn(-c2ccc(F)cc2N2CCOCC2)c1=O [Example 25, 1-[4-fluoro-2-(morpholin-4-yl)phenyl]-2-oxo-N-[6-(2,2,2-trifluoroethoxy)pyridin-3-yl]-1,2-dihydropyridine-3-carboxamide]"
4,92,"N#Cc1ccc(NC(=O)c2cccn(-c3ccccc3OCC(F)(F)F)c2=O)nc1 [Example 31, N-(5-cyanopyridin-2-yl)-2-oxo-1-[2-(2,2,2-trifluoroethoxy)phenyl]-1,2-dihydropyridine-3-carboxamide]"
5,76,"CC(C)Cn1cc(NC(=O)c2cccn(-c3ccc(F)cc3OCC(F)(F)F)c2=O)cn1 [Example 33, 1-[4-fluoro-2-(2,2,2-trifluoroethoxy)phenyl]-N-[1-(2-methylpropyl)-1H-pyrazol-4-yl]-2-oxo-1,2-dihydropyridine-3-carboxamide]"
6,98,"N#Cc1ccc(NC(=O)c2cccn(-c3ccccc3OCC(F)(F)F)c2=O)cn1 [Example 24, N-(6-cyanopyridin-3-yl)-2-oxo-1-[2-(2,2,2-trifluoroethoxy)phenyl]-1,2-dihydropyridine-3-carboxamide]"
7,100,"O=C(Nc1ccc(C(F)(F)F)nc1)c1cccn(-c2ccccc2OCC(F)(F)F)c1=O [Example 20, 2-oxo-1-[2-(2,2,2-trifluoroethoxy)phenyl]-N-[6-(trifluoromethyl)pyridin-3-yl]-1,2-dihydropyridine-3-carboxamide]"
